From PubChem BioAssay (NCI)
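How tested: cells in 96-well plates exposed to compound for 48 hours at five concentrations. TGI is the concentration that stops growth completely.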

Assays:
Test in all cases: NCI tumour cell line growth inhibition, 48 h
HOP-18 NSCLC = tested on: HOP-18 NSCLC
DMS 114 small cell lung = tested on: DMS 114 small cell lung
SNB-78 CNS = tested on: SNB-78 CNS
M19-MEL melanoma = tested on: M19-MEL melanoma
KM20L2 colon = tested on: KM20L2 colon
DMS 273 small cell lung = tested on: DMS 273 small cell lung
LXFL 529 NSCLC = tested on: LXFL 529 NSCLC
RXF-631 renal = tested on: RXF-631 renal
XF 498 CNS = tested on: XF 498 CNS

| Compound | TGI (HOP-18 NSCLC) | TGI (DMS 114 small cell lung) | TGI (SNB-78 CNS) | TGI (M19-MEL melanoma) | TGI (KM20L2 colon) | TGI (DMS 273 small cell lung) | TGI (LXFL 529 NSCLC) | TGI (RXF-631 renal) | TGI (XF 498 CNS) |
| --- | --- | --- | --- | --- | --- | --- | --- | --- | --- |
| CC(=O)OC1CC2C(C)(C)C(=O)C=C[C@]2(C)C2CCC3(C)C(c4ccoc4)[C@@H](O)[C@H]4O[C@]43[C@]12C (stereo partly specified) | 45.5 µM | 41.9 µM | 67.8 µM | 36.5 µM | 33.4 µM | 89.1 µM | 37 µM | – | – |
| CCOC(=O)C(C(=O)OCC)=C1N[C@H](C(=O)OCC)CS1 | > 100 µM | – | > 100 µM | > 100 µM | > 100 µM | – | > 100 µM | > 100 µM | > 100 µM |
| c1ccc(CN2CCCCC(Sc3ccccc3)CC2)cc1 (stereo unspecified) | > 100 µM | 44.6 µM | 80.1 µM | 12.9 µM | 76.3 µM | 25.1 µM | 32.6 µM | – | – |
| NC(=O)NC1=NC(Cc2ccccc2)C(=O)N1Cc1ccccc1 (stereo unspecified) | – | > 100 µM | > 100 µM | > 100 µM | > 100 µM | > 100 µM | > 100 µM | – | > 100 µM |
| CC1=CC(=O)c2c(C=O)c(O)c(O)c(C(C)C)c2C1=O | 58 µM | 51.5 µM | > 100 µM | > 100 µM | > 100 µM | > 88.5 µM | 41.4 µM | – | 43.9 µM |
| C=C(Br)C(C)(Br)CCC(Br)C(C)(C)Br (stereo unspecified) | > 100 µM | 31.6 µM | 70.4 µM | 35.8 µM | – | 42.9 µM | 45.2 µM | – | – |
| CC(=O)c1ccc(NC(=O)C(=O)C(C(=O)c2ccc(Cl)c(Cl)c2)C2OC(=O)c3ccccc32)cc1 (stereo unspecified) | 90.6 µM | 46.3 µM | > 100 µM | – | > 100 µM | 68.5 µM | 32.8 µM | – | > 100 µM |
| Cc1c(C(=O)/C=C/c2c(Cl)cccc2Cl)c(=O)n(-c2ccccc2)n1C | – | > 100 µM | > 100 µM | > 100 µM | > 100 µM | 33.7 µM | 31.1 µM | – | 71 µM |
